Data on three compounds can be found in ChEMBL document CHEMBL3621157, “Design, synthesis and biological evaluation of novel 1,2,4-triazolo and 1,2,4-triazino[4,3-a]quinoxalines as potential anticancer and antimicrobial agents” (2015).

SMILES strings stand for the structures. ≈ marks a conversion by molar mass, not a printed value.

What all share (assay type): functional
For test [1], the system named is Candida albicans. Put plainly: Antimicrobial activity against Candida albicans DSM 70014 incubated for 48 hrs followed by transfer of colonies to Muller-Hinton agar plate and measured after 18 hrs by two-fold serial broth dilution method. Background: Broth dilution looks for growth in wells or tubes with falling amounts of substance.
Test [2] deals with MDA-MB-231. The experiment in a line: Growth inhibition of human MDA-MB-231 cells at 10 uM incubated for 48 hrs by sulforhodamine B assay. The note with it: MDA-MB-231, 48 h, read-out: GI. For orientation: In SRB staining, fixed cells bind dye roughly in proportion to their protein.
For test [3], the system named is Candida albicans. Put plainly: Antimicrobial activity against Candida albicans DSM 70014 incubated at 37 degC for 48 hrs by cup diffusion method.
In test [4] the test system is Bacillus subtilis. Put plainly: Antimicrobial activity against Bacillus subtilis ATCC 6633 incubated at 37 degC for 24 hrs by cup diffusion method.
Test [5] concerns Escherichia coli. Put plainly: Antimicrobial activity against Escherichia coli ATCC 11775 incubated for 24 hrs by two-fold serial broth dilution method. The note with it: ATCC 11775, 24 h.
In test [6] the test system is Pseudomonas aeruginosa. The experiment in a line: Antimicrobial activity against Pseudomonas aeruginosa ATCC 10145 incubated for 24 hrs by two-fold serial broth dilution method. The conditions noted are these: ATCC 10145, 24 h.
Test [7] has as its system Staphylococcus aureus. The experiment in a line: Antimicrobial activity against Staphylococcus aureus DSM 1104 incubated for 24 hrs followed by transfer of colonies to Muller-Hinton agar plate and measured after 18 hrs by two-fold serial broth dilution method.
The test system of test [8] is HT-29. The experiment in a line: Growth inhibition of human HT-29 cells at 10 uM incubated for 48 hrs by sulforhodamine B assay. The conditions noted are these: HT-29, 48 h, read-out: GI.
The test system of test [9] is Bacillus subtilis. Put plainly: Antimicrobial activity against Bacillus subtilis ATCC 6633 incubated for 24 hrs followed by transfer of colonies to Muller-Hinton agar plate and measured after 18 hrs by two-fold serial broth dilution method.
Test [10] concerns Pseudomonas aeruginosa. The experiment in a line: Antimicrobial activity against Pseudomonas aeruginosa ATCC 10145 incubated at 37 degC for 24 hrs by cup diffusion method.
Test [11] concerns NCI-H226. Put plainly: Growth inhibition of human NCI-H226 cells at 10 uM incubated for 48 hrs by sulforhodamine B assay. The conditions noted are these: NCI-H226, 48 h, read-out: GI.
Test [12] relates to CAKI-1. Put plainly: Growth inhibition of human Caki1 cells at 10 uM incubated for 48 hrs by sulforhodamine B assay. The conditions noted are these: CAKI-1, 48 h, read-out: GI.
Test [13] deals with HCT-116. Put plainly: Growth inhibition of human HCT116 cells at 10 uM incubated for 48 hrs by sulforhodamine B assay. The note with it: HCT-116, 48 h, read-out: GI.
The subject of test [14] is Escherichia coli. The experiment in a line: Antimicrobial activity against Escherichia coli ATCC 11775 incubated for 24 hrs followed by transfer of colonies to Muller-Hinton agar plate and measured after 18 hrs by two-fold serial broth dilution method.
Test [15] can be described thus: Growth inhibition of human EKVX cells at 10 uM incubated for 48 hrs by sulforhodamine B assay. The note with it: read-out: GI.
Test [16] relates to Candida albicans. Put plainly: Antimicrobial activity against Candida albicans DSM 70014 incubated for 48 hrs by two-fold serial broth dilution method. The conditions noted are these: DSM 70014, 48 h.
Test [17] concerns Staphylococcus aureus. The experiment in a line: Antimicrobial activity against Staphylococcus aureus DSM 1104 incubated at 37 degC for 24 hrs by cup diffusion method.
Test [18] has as its system Escherichia coli. The experiment in a line: Antimicrobial activity against Escherichia coli ATCC 11775 incubated at 37 degC for 24 hrs by cup diffusion method.
In test [19] the test system is NCI-H23. The experiment in a line: Growth inhibition of human NCI-H23 cells at 10 uM incubated for 48 hrs by sulforhodamine B assay. The note with it: NCI-H23, 48 h, read-out: GI.
Test [20] concerns HCT-15. Put plainly: Growth inhibition of human HCT15 cells at 10 uM incubated for 48 hrs by sulforhodamine B assay. The note with it: HCT-15, 48 h, read-out: GI.
Test [21] is described as follows: Growth inhibition of human RXF393 cells at 10 uM incubated for 48 hrs by sulforhodamine B assay. The conditions noted are these: RXF 393, 48 h, read-out: GI.
In test [22] the test system is A549. Put plainly: Growth inhibition of human A549 cells at 10 uM incubated for 48 hrs by sulforhodamine B assay. The note with it: A549, 48 h, read-out: GI.
For test [23], the system named is Bacillus subtilis. The experiment in a line: Antimicrobial activity against Bacillus subtilis ATCC 6633 incubated for 24 hrs by two-fold serial broth dilution method. The note with it: ATCC 6633, 24 h.
The test system of test [24] is SNB-75. Put plainly: Growth inhibition of human SNB75 cells at 10 uM incubated for 48 hrs by sulforhodamine B assay. The conditions noted are these: SNB-75, 48 h, read-out: GI.
The test system of test [25] is Staphylococcus aureus. Put plainly: Antimicrobial activity against Staphylococcus aureus DSM 1104 incubated for 24 hrs by two-fold serial broth dilution method. The note with it: DSM 1104, 24 h.
In test [26] the test system is Pseudomonas aeruginosa. Put plainly: Antimicrobial activity against Pseudomonas aeruginosa ATCC 10145 incubated for 24 hrs followed by transfer of colonies to Muller-Hinton agar plate and measured after 18 hrs by two-fold serial broth dilution method.
In test [27] the test system is UO-31. The experiment in a line: Growth inhibition of human UO31 cells at 10 uM incubated for 48 hrs by sulforhodamine B assay. The conditions noted are these: UO-31, 48 h, read-out: GI.
Test [28] in a line: Growth inhibition of human HOP92 cells at 10 uM incubated for 48 hrs by sulforhodamine B assay. The conditions noted are these: HOP-92, 48 h, read-out: GI.
Test [29] concerns NCI-H522. The experiment in a line: Growth inhibition of human NCI-H522 cells at 10 uM incubated for 48 hrs by sulforhodamine B assay. The note with it: NCI-H522, 48 h, read-out: GI.
The test system of test [30] is PC-3. The experiment in a line: Growth inhibition of human PC3 cells at 10 uM incubated for 48 hrs by sulforhodamine B assay. The conditions noted are these: PC-3, 48 h, read-out: GI.
The subject of test [31] is SF-268. The experiment in a line: Growth inhibition of human SF268 cells at 10 uM incubated for 48 hrs by sulforhodamine B assay. The conditions noted are these: SF-268, 48 h, read-out: GI.
Test [32] concerns OVCAR-3. Put plainly: Growth inhibition of human OVCAR3 cells at 10 uM incubated for 48 hrs by sulforhodamine B assay. The conditions noted are these: OVCAR-3, 48 h, read-out: GI.

By MFC is commonly meant the smallest concentration meeting the test's criterion for killing the fungus. As usually defined, the MIC is the lowest concentration found to suppress growth. One may read the MBC as the smallest concentration meeting the test's criterion for killing. Lower therefore signals more potent killing.

`Nc1cc(-c2ccc(Cl)cc2)nn1-c1nc2ccccc2nc1Cc1ccccc1`: the MFC in [1] is 50 µg/mL (≈ 121 µM). Besides, the inhibition of growth at 10 µM was 24.9% in test [2]; 30.3% in [8]; 15.7% in test [11]; 19.3% in test [12]; 27.2% in [13]; 21.4% in test [15]. Further, the inhibition of growth at 10 µM turned out to be 18.5% in test [19]; 25.6% in test [20]; 21.3% in test [21]; 22% in test [22]; 15.6% in test [24]. Further, the “inhibition zone (IZ)” value is 16 mm in test [3]; 15 mm in test [4]; 12 mm in test [10]; 14 mm in test [17]; 16 mm in [18]. In addition, the MIC is 100 µg/mL (≈ 243 µM) in test [5]; 50 µg/mL (≈ 121 µM) in test [6]; 50 µg/mL (≈ 121 µM) in test [16]; 100 µg/mL (≈ 243 µM) in [23]; 100 µg/mL (≈ 243 µM) in [25]. For the same compound, the minimum bactericidal concentration (MBC) in [7] came out at 100 µg/mL (≈ 243 µM); in test [9] it was 100 µg/mL (≈ 243 µM); in test [14] it was 100 µg/mL (≈ 243 µM); in [26], 50 µg/mL (≈ 121 µM).
The compound `O=C(O)CCc1nnc2c(Cc3ccccc3)nc3ccccc3n12` displayed an MFC in [1] of 100 µg/mL (≈ 301 µM). Also, the “inhibition zone (IZ)” value was 16 mm in [3]; 12 mm in test [4]; 12 mm in [10]; 13 mm in test [17]; 15 mm in [18]. For the same compound, the MIC is 12.5 µg/mL (≈ 37.6 µM) in test [5]; 25 µg/mL (≈ 75.2 µM) in test [6]; 50 µg/mL (≈ 150 µM) in test [16]; 12.5 µg/mL (≈ 37.6 µM) in test [23]; 25 µg/mL (≈ 75.2 µM) in test [25]. Further, the MBC in test [7] came out at 50 µg/mL (≈ 150 µM); in test [9] it was 25 µg/mL (≈ 75.2 µM); in test [14] it was 25 µg/mL (≈ 75.2 µM); in test [26] it was 25 µg/mL (≈ 75.2 µM). The inhibition of growth at 10 µM in test [27] was found to be 12.2%; in test [28] it was 18.9%; in test [24], 17.7%.
As to `O=C(O)c1ccccc1-c1nnc2c(Cc3ccccc3)nc3ccccc3n12`, the MFC in test [1] was found to be 50 µg/mL (≈ 131 µM). For the same compound, the “inhibition zone (IZ)” value in test [3] is recorded as 14 mm; in [4], 16 mm; in test [10], 12 mm; in test [17], 14 mm; in test [18], 15 mm. Further, the minimum inhibitory concentration (MIC) in test [5] is 25 µg/mL (≈ 65.7 µM); in test [6], 100 µg/mL (≈ 263 µM); in test [16], 25 µg/mL (≈ 65.7 µM); in test [23], 100 µg/mL (≈ 263 µM); in test [25], 100 µg/mL (≈ 263 µM). Besides, the minimum bactericidal concentration (MBC) in [7] came to 200 µg/mL (≈ 526 µM); in test [9], 100 µg/mL (≈ 263 µM); in [14] it was 50 µg/mL (≈ 131 µM); in [26] it was 100 µg/mL (≈ 263 µM). Further, the inhibition of growth at 10 µM in [27] was determined as 18%; in [29] it was 14.6%; in test [24], 24.4%; in [30] it was 43.9%; in test [31] it was 14.1%; in test [32], 20.2%.
